Like-named read-outs stand apart in the source and are kept apart here.
How the values were obtained:
5-HT3 receptors = molecular target: T1, 5-HT3 receptors (Rattus norvegicus, UniProt P35563); assay: Affinity for the 5-HT3 receptors, [3H]-BRL43694 (Granisetron) binding
T1 construct: from tissue; host or cells: rat cortex and hippocampus
T1 sequence (P35563 24-483): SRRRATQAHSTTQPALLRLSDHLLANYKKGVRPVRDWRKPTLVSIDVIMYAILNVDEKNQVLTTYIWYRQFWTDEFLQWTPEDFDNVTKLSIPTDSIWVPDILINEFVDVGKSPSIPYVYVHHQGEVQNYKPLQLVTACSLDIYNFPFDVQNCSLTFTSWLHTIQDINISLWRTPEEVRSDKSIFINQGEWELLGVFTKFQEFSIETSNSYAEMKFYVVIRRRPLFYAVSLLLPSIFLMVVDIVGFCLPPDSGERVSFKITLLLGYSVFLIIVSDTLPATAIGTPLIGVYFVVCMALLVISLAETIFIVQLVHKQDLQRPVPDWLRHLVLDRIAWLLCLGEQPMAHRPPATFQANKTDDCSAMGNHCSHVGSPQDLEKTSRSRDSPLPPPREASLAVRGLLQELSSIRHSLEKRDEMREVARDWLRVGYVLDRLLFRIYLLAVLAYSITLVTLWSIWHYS
Protocol: a) Affinity for the 5-HT3 Receptors
The method of Nelson et al. (Biochem. Pharmacol. 1989, 38, 1693-95) was followed with slight modifications. Rat cortex and hippocampus were used to produce a pellet having a final concentration of 20 mg of tissue/sample. Specific activity of the tracer: 81 Ci/mmole; incubation time: 30 min; incubation temperature: 25° C.

serotonin uptake site = molecular target: T2, serotonin uptake site (Rattus norvegicus, UniProt P31652); assay: Affinity for the serotonin uptake site, [3H]-paroxetine binding
T2 construct: from tissue; host or cells: entire rat brain
Protocol: The method of Plenge et al (Eur. J. Pharmacol., 1990, 189, 129-134) was followed with slight modifications. The entire rat brain was used to produce a pellet having a final concentration of 2 mg of tissue/sample. Specific activity of the tracer: 29.7 Ci/mmole; incubation time: 60 min.; incubation temperature: 25° C.

5-HT2A Subtype = molecular target: T3, 5-HT2A Subtype (Rattus norvegicus, UniProt P14842); assay: Affinity for the 5HT2 receptors, [3H]-ketanserine binding; conditions: for Ki: read-out: Ki ± SE, 5-HT2A Subtype ([3R]-ketanserine)
T3 construct: from tissue; host or cells: rat prefrontal cortex
Protocol: c) Affinity for the 5HT2 Receptors
The method of Leysen et al (Mol. Pharmacol. 1982, 21, 301-314) was followed with slight modifications. Rat prefrontal cortex was used to produce a pellet having a final concentration of 8 mg of tisssue/sample. Specific activity of the tracer: 80.9 Ci/mmole; incubation time: 20 min; incubation temperature: 37° C.

5-HT1A receptors = molecular target: T4, 5-HT1A receptors (Rattus norvegicus, UniProt P19327); assay: Affinity for the 5-HT1A receptors, [3H]-8-OH DPAT binding; conditions: for Ki ± SE, 5-HT1A Subtype ([3H]-8OH-DPAT): rat hippocampus, 10 min, 37° C., IN (10^−6M) where no Ki is given
T4 construct: from tissue; host or cells: rat hippocampus
T4 sequence (P19327 1-422): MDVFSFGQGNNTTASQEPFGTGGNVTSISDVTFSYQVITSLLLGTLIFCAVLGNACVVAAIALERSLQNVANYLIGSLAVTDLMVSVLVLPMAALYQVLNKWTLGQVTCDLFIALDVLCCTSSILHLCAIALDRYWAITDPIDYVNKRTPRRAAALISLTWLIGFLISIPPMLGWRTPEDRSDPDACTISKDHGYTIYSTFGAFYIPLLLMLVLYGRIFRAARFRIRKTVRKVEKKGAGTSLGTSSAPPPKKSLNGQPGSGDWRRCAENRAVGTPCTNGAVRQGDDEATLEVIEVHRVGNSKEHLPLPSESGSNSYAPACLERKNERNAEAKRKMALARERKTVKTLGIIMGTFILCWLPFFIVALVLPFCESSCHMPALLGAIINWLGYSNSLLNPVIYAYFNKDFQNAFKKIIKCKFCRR
Protocol: d) Affinity for the 5-HT1A Receptors
The method of Hall et al (J. Neurochem. 1985, 44, 1685-1696) was followed with slight modifications. Rat hippocampus was used to produce a pellet having a final concentration of 4 mg of tissue/sample. Specific activity of the tracer: 137 Ci/mmole; incubation time 10 min; incubation temperature: 37° C.

[1] = entire rat brain, 60 min, 25° C., read-out: Ki ± SE, 5-HT Uptake ([3H]-paroxetin)
[2] = rat prefrontal cortex, 20 min, 37° C., IN (10^−6M) where no Ki is given

T3 sequence (P14842 whole entry): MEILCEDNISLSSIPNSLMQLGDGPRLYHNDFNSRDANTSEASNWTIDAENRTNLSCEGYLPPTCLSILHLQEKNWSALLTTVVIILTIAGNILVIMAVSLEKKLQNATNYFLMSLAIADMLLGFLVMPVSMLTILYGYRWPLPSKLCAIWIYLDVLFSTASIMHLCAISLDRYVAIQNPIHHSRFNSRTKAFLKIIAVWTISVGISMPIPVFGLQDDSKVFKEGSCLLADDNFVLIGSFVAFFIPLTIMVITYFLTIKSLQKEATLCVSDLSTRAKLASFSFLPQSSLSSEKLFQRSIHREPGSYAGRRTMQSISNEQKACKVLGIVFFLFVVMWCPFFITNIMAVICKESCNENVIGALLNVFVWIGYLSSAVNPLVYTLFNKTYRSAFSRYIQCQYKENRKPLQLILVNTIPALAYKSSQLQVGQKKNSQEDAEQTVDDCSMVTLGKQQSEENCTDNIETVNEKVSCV
T2 sequence (P31652 whole entry): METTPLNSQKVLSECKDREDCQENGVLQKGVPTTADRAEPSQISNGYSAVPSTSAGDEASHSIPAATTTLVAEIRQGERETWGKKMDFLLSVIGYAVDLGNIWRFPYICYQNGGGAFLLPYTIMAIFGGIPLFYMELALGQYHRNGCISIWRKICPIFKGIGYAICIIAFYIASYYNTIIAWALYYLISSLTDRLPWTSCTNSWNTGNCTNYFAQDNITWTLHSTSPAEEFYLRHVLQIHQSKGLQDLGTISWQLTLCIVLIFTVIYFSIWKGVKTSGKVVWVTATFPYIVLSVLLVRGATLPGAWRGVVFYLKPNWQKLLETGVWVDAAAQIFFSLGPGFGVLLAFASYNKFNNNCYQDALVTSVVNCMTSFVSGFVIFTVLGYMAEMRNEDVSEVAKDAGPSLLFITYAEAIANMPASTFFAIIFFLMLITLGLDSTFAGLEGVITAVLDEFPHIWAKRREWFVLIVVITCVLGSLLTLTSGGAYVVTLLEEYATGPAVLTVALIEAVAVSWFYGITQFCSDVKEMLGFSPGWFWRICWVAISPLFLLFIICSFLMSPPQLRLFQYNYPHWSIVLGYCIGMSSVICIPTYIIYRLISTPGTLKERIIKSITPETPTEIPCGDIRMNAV

SMILES | Ki (5-HT3 receptors) | Ki (serotonin uptake site; [1]) | Ki ± SE, 5-HT2A Subtype ([3R]-ketanserine) (5-HT2A Subtype; [2]) | melting point | Ki ± SE, 5-HT1A Subtype ([3H]-8OH-DPAT) (5-HT1A receptors) | further results
CN1[C@@H]2CC[C@H]1C[C@@H](N1Cc3nc4ccccc4cc3C1=O)C2 [Compound 11, endo-2-[8-methyl-8-azadicyclo[3.2.1]oct-3-yl]-2,3-dihydro-1H-pyrrolo[3,4-b]quinolin-1-one, reference compound] | 87 ± 37 nM |  |  |  |  | less active than Compound 2 at the 5HT3 receptor (5-HT3 receptors; relative to Compound 2): approximately 60 times
CN1[C@@H]2CC[C@H]1C[C@@H](N1Cc3cnc4ccccc4c3C1=O)C2 [Compound 2, endo-2-[8-methyl-8-azadicyclo[3.2.1]oct-3-yl]-2,3-dihydro-1H-pyrrolo[3,4-c]quinolin-1-one] | 1.3 ± 0.2 nM | 503 ± 86 nM | IN (10^−6M) | 153 to 154 °C | IN (10^−6M) | 
O=C1c2c(ccc3ccccc23)CN1[C@H]1CN2CCC1CC2 [Compound 8, (R)-2-[1-azadicyclo[2.2.2]oct-3-yl]-2,3-dihydro-1H-benz[e]isoindol-1-one] | 1.8 ± 0.5 nM |  |  | 155 to 157 °C |  | 
CCCOc1nc2ccccc2c2c1CN(C1CC3CCC(C1)N3C)C2=O (stereo not drawn) [Compound 4, endo-2-[8-methyl-8-azadicyclo[3.2.1]oct-3-yl]-2,3-dihydro-4-propoxy-1H-pyrrolo[3,4-c]quinolin-1-one] | 0.7 ± 0.2 nM | 108 ± 15 nM | IN (10^−6M) | 170 to 171 °C | IN (10^−6M) | 
CN1[C@@H]2CC[C@H]1C[C@@H](N1Cc3ccc4ccccc4c3C1=O)C2 [Compound 1] | 1 ± 0.2 nM | 632 ± 51 nM |  |  |  | Ki (5-HT2A Subtype): 21100 ± 2300 nM; Ki (5-HT1A receptors; read-out: Ki ± SE, 5-HT1A Subtype ([3H]-8OH-DPAT)): 30600 ± 6460 nM
CN1[C@@H]2CC[C@H]1C[C@@H](N1Cc3c(Cl)nc4ccccc4c3C1=O)C2 [Compound 3, endo-2-[8-methyl-8-azadicyclo[3.2.1]oct-3-yl]-2,3-dihydro-4-chloro-1H-pyrrolo[3,4-c]quinolin-1-one] | 2.6 ± 0.4 nM | 175 ± 30 nM | IN (10^−6M) | 169 to 171 °C | IN (10^−6M) | 
O=C1c2c(ccc3ccccc23)CN1[C@@H]1CN2CCC1CC2 [Compound 7, (S)-2-[1-azadicyclo[2.2.2]oct-3-yl]-2,3-dihydro-1H-benz[e]isoindol-1-one] | 0.3 ± 0.09 nM |  |  | 152 to 154 °C |  | affinity for the 5-HT3 receptor (in words) (5-HT3 receptors): sub-nanomolar
O=C1c2c(ccc3ccccc23)CN1C1CN2CCC1CC2 (racemic) [Compound 6, (R,S)-2-[1-azadicyclo[2.2.2]oct-3-yl]-2,3-dihydro-1H-benz[e]isoindol-1-one] | 0.7 ± 0.08 nM |  |  | 153 to 154 °C | IN (10^−6M) | Ki (serotonin uptake site): 95.8 ± 9.6 nM; Ki (5-HT2A Subtype): 26500 ± 8700 nM
O=C1c2c(cnc3ccccc23)CN1C1CN2CCC1CC2 (racemic) [Compound 9, (R,S)-2-[1-azadicyclo[2.2.2]oct-3-yl]-2,3-dihydro-1H-pyrrolo[3,4-c]quinolin-1-one] | 1.6 ± 0.6 nM | 124 ± 22 nM | IN (10^−6M) |  | IN (10^−6M) | 
O=[N+]([O-])c1ccc2nc(N3CCNCC3)ccc2c1 [6-NO2-quipazine, reference compound] |  | 0.12 ± 0.01 nM |  |  |  | 
c1ccc2nc(N3CCNCC3)ccc2c1 [quipazine, reference compound] |  | 31.3 ± 2.9 nM |  |  |  | Ki (5-HT2A Subtype; [2]): 1810 ± 476 nM
CN1[C@@H]2CC[C@H]1C[C@H](N1Cc3ccc4ccccc4c3C1=O)C2 [Compound 10, reference compound] | 85.5 ± 16 nM |  |  |  |  | less active than Compound 1 at the 5HT3 receptor (5-HT3 receptors; relative to Compound 1): ~2 orders of logarithmic magnitude
CN1[C@@H]2CC[C@H]1C[C@@H](N1Cc3c(O)nc4ccccc4c3C1=O)C2 [Compound 5, endo-2-[8-methyl-8-azadicyclo[3.2.1]oct-3-yl]-2,3-dihydro-4-hydroxy-1H-pyrrolo[3,4-c]quinolin-1-one] | 0.9 ± 0.06 nM | 485 ± 37 nM | IN (10^−6M) | 245 to 246 °C | IN (10^−6M) | 
